The values that follow come from US4294833A, “Substituted 4-hydroxy-isophthalic acid picolylamides having a pharmaceutical activity in thromboembolic disorders” (Societa Italo-Britannica, priority 1977, dated 1981).

Series [1] relates to platelet aggregation induced by ADP. Description: Platelet aggregation inhibitory activity in vivo (Born aggregometer), ADP-induced. Set-up: species or system New Zealand rabbits. Conditions: Oryctolagus cuniculus, Platelet, ip, dose for 50% inhibition of ADP-induced aggregation curve; rabbits, intraperitoneal, blood 2, 4 and 6 hours after injection; read-out: platelet antiaggregant activity (AAP), DI50, ADP. In outline: (§1)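 Fasted New Zealand rabbits under Nembutal anaesthesia (35 mg/kg i.m.) received compound intraperitoneally. Carotid blood was taken before and 2, 4 and 6 h after dosing and citrated to prepare PRP for ADP- or thrombin-induced Born aggregometry. DI50 (mg/kg) is the dose halving the aggregation curve relative to the same animal's pre-dose plasma.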

The test system of series [2] is platelet aggregation induced by thrombin. Description: Platelet aggregation inhibitory activity in vivo (Born aggregometer), thrombin-induced. Further details: species or system New Zealand rabbits. Conditions: Oryctolagus cuniculus, Platelet, ip, dose for 50% inhibition of thrombin-induced aggregation curve; rabbits, intraperitoneal, blood 2, 4 and 6 hours after injection; read-out: platelet antiaggregant activity (AAP), DI50, Thrombin. The method, boiled down:
as §1

The subject of series [3] is thrombin-induced coagulation of platelet rich plasma. As to the kind of experiment: Antithrombin activity on PRP, Hartert's thromboelastograph. It counts as in vivo, New Zealand rabbits. The settings on record: Oryctolagus cuniculus, Platelet, ip, percent decrease of index ma/[r+k] vs before treatment; 20 mg/kg intraperitoneal, rabbits. The method, boiled down:
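Compounds were given intraperitoneally at 20 mg/kg, and coagulation of platelet rich plasma was then induced with thrombin (60 units, pH 7.4) and recorded on a Hartert thromboelastograph. Activity is the percent decrease of the ma/(r+k) index relative to the pre-treatment value.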

The subject of series [4] is CaCl2-induced plasma coagulation. Description: Anticoagulant activity on PRP, Hartert's thromboelastograph. It counts as in vivo, New Zealand rabbits. Conditions: Oryctolagus cuniculus, ip, percent increase of total time for coagulum formation (r+k) vs before treatment; 25 mg/kg intraperitoneal, rabbits; read-out: anticoagulant activity (AC). In outline:
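Animals dosed at 25 mg/kg i.p.; PRP coagulation induced with 1.29% CaCl2 and followed by Hartert thromboelastography. Activity given as percent increase in r+k (total coagulum formation time) after treatment versus pre-treatment value.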

A further series deals with blood coagulum. Description: Fibrinolytic activity, Fearnley method (lysis of blood coagulum in toto). It counts as in vivo. Conditions: Oryctolagus cuniculus, ip, 0.5 h, percent decrease of coagulum weight after 30 minutes at 37° C.; 25 mg/kg intraperitoneal, rabbits; read-out: fibrinolytic activity (FL). The method, boiled down: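 Rabbits received compounds at 25 mg/kg i.p., and 0.2 ml ear-vein blood was drawn before and after dosing. Blood was mixed with pH 7.4 phosphate buffer and thrombin (50 NIH units/ml solution), held 30 min on ice, then 30 min at 37 °C. Activity is the percent decrease in clot weight.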

Series [5] can be described thus: Acute toxicity, intraperitoneal. Conditions: mouse, in vivo, ip, male Swiss mice, intraperitoneal, 7 days observation; preliminary, by graphic interpolation; read-out: acute toxicity (LD50 / DL50). The method, boiled down:
(§2)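 Male Swiss mice (20±2 g), fasted 18 h with water ad libitum, were dosed intraperitoneally and observed for 7 days for symptoms and deaths. Preliminary LD50 (mg/kg) was obtained by graphic interpolation.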

Another series has as its system male Swiss mice. Description: Acute toxicity, intraperitoneal. The settings on record: mouse, in vivo. In outline:
as §2

By inhibition in vivo is commonly meant how much of the control response was suppressed. Low values mean a response near the control, high ones a response far below the control. On to `CCCCCOc1ccc(C(=O)NCc2cccnc2)cc1C(=O)NCc1cccnc1` [Example 3], for which the ED50 in series [1] was found to be 25.3 mg/kg; in series [2], 17.5 mg/kg. This compound registered an inhibition in vivo at 20 mg/kg in series [3] of 43%. For the same compound, the change in vivo at 25 mg/kg in series [4] came to 27.4%. For the same compound, in the series with blood coagulum, the fibrinolytic activity (percent decrease of coagulum weight) at 25 mg/kg was found to be 36.2%. For the same compound, the LD50 at 168 h in series [5] was 380 mg/kg. The “acute toxicity (in words)” value in the series with male Swiss mice was “the acute toxicity increases with an increasing number of carbon atoms in the substituent R"”.
Regarding `CCCCOc1ccc(C(=O)NCc2cccnc2)cc1C(=O)NCc1cccnc1` [Example 2], the ED50 is 26.7 mg/kg in series [1] and 18.2 mg/kg in series [2]. Besides, 20 mg/kg produced 40.1% inhibition in vivo in series [3]. Further, in series [4], the change in vivo at 25 mg/kg came to 23.2%. The fibrinolytic activity (percent decrease of coagulum weight) at 25 mg/kg in the series with blood coagulum stood at 35.7%. The LD50 at 168 h in series [5] came out at 573 mg/kg. The “acute toxicity (in words)” value in the series with male Swiss mice is recorded as “the acute toxicity increases with an increasing number of carbon atoms in the substituent R"”.
